Key:
[1] = wn = mass fraction of the nth substance listed; conditions: for surface tension liquid-gas: Pendant drop shape; for viscosity / mass density: 101 kPa, Liquid; for viscosity: Capillary tube (Ostwald / Ubbelohde) method
[2] = refractive index (Na D-line) (dimensionless); wn = mass fraction of the nth substance listed; conditions: 101 kPa, Liquid

C1CNCCN1 [piperazine] + O
Conditions	mass density, [1] [kg/m3]	refractive index, [2]	surface tension liquid-gas, [1] [mN/m]	viscosity, [1] [mPa·s]
298.15 K, w1 = 0.0174	997.75	1.33796	70.97	0.87
298.15 K, w1 = 0.0345	998.52	1.34183	69.95	0.94
298.15 K, w1 = 0.0688	1000.18	1.34759	69.83	1.08
298.15 K, w1 = 0.1035	1002.23	1.35307	69.41	1.29
303.15 K, w1 = 0.0174	996.37	1.33706	70.09	0.78
303.15 K, w1 = 0.0345	997.08	1.34024	69.18	0.85
303.15 K, w1 = 0.0688	998.69	1.34608	68.99	0.96
303.15 K, w1 = 0.1035	1000.64	1.35203	68.37	1.18
308.15 K, w1 = 0.0174	994.74	–	–	0.71
308.15 K, w1 = 0.0345	995.43	–	–	0.75
308.15 K, w1 = 0.0688	996.97	–	–	0.86
308.15 K, w1 = 0.1035	998.84	–	–	1.04
313.15 K, w1 = 0.0174	992.91	1.33604	69.11	0.68
313.15 K, w1 = 0.0345	993.59	1.33892	68.21	0.69
313.15 K, w1 = 0.0688	995.07	1.34482	68.11	0.78
313.15 K, w1 = 0.1035	996.86	1.35071	67.44	0.9
318.15 K, w1 = 0.0174	990.9	–	–	0.59
318.15 K, w1 = 0.0345	991.56	–	–	0.63
318.15 K, w1 = 0.0688	992.99	–	–	0.71
318.15 K, w1 = 0.1035	994.73	–	–	0.84
323.15 K, w1 = 0.0174	988.72	1.33476	67.93	0.54
323.15 K, w1 = 0.0345	989.35	1.33759	67.29	0.57
323.15 K, w1 = 0.0688	990.74	1.34336	67.06	0.65
323.15 K, w1 = 0.1035	992.39	1.34957	66.45	0.78
328.15 K, w1 = 0.0174	986.37	–	–	0.5
328.15 K, w1 = 0.0345	986.98	–	–	0.52
328.15 K, w1 = 0.0688	988.33	–	–	0.58
328.15 K, w1 = 0.1035	989.92	–	–	0.68
333.15 K, w1 = 0.0174	983.83	1.33348	66.99	0.46
333.15 K, w1 = 0.0345	984.46	1.33577	66.48	0.48
333.15 K, w1 = 0.0688	985.77	1.34221	66.14	0.54
333.15 K, w1 = 0.1035	987.3	1.34829	65.31	0.62
